# Test results: US11382912B2, “Controlled-release preparation” (NIPPON SHINYAKU CO., LTD., priority 2017, dated 2022)
# Molecular target: PGI2 receptor (Homo sapiens, UniProt P43119)
# Assay: not given
# Conditions: known, PTL 7 to PTL 12; cited from earlier work
# Sequence of PGI2 receptor (P43119 whole entry, species assumed): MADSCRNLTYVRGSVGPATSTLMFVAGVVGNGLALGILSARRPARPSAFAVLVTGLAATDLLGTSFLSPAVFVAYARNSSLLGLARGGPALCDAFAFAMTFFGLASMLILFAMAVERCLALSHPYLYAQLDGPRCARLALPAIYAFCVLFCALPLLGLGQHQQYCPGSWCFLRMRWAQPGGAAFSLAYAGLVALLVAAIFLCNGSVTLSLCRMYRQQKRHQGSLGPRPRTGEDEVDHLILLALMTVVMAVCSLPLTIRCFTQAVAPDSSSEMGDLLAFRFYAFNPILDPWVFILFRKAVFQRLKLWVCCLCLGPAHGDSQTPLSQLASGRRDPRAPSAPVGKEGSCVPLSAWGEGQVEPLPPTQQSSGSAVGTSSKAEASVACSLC
row,SMILES,PGI2 receptor agonistic effect
1,"CC(C)N(CCCCOCC(=O)NS(C)(=O)=O)c1cnc(-c2ccccc2)c(-c2ccccc2)n1 [Compound A, 2-{4-[N-(5,6-diphenylpyrazin-2-yl)-N-isopropylamino]butyloxy}-N-(methylsulfonyl)acetamide]",excellent

# System: not given
# Assay: not given
# Conditions: known, NPL 1; cited from earlier work
row,SMILES,Solubility
1,"CC(C)N(CCCCOCC(=O)NS(C)(=O)=O)c1cnc(-c2ccccc2)c(-c2ccccc2)n1 [Compound A, 2-{4-[N-(5,6-diphenylpyrazin-2-yl)-N-isopropylamino]butyloxy}-N-(methylsulfonyl)acetamide]",depend on pH

# System: not listed separately
# Assay: pH of alkaline substance at 0.1 wt % in water
# Format: physicochemical
# Conditions: dissolved or dispersed in water at 0.1 wt %
# Experimental: The pH of the alkaline substance was measured according to the following method.
# The alkaline substance was dissolved (or dispersed) in water at 0.1 wt %, and the pH of the solution (or the dispersion) was determined using a pH METER HM-30R (manufactured by DKK-TOA Corporation).
row,SMILES,pH
1,O=C([O-])[O-].[Ca+2] [Calcium carbonate],9.8
2,[Ca+2].[OH-].[OH-] [Calcium hydroxide],12.2
3,O=C([O-])[O-].[Na+].[Na+] [Dried sodium carbonate],11.0
4,[Mg+2].[OH-].[OH-] [Magnesium hydroxide],10.3
5,[O]=[Mg] [Magnesium oxide],10.7
6,CNC[C@H](O)[C@@H](O)[C@H](O)[C@H](O)CO [Meglumine],10.6
7,O=C([O-])[O-].[K+].[K+] [Potassium carbonate],10.9
8,CC(=O)[O-].[Na+] [Sodium acetate],7.6
9,O=C([O-])O.[Na+] [Sodium bicarbonate],8.5
10,O=P([O-])([O-])O.[Na+].[Na+] [Sodium hydrogen phosphate],9.2
11,O=C([O-])CC(O)(CC(=O)[O-])C(=O)[O-].[Na+].[Na+].[Na+] [Trisodium citrate],8.3
